Read-outs that look alike come from different tables or passages of the source.
Tests used:
physchem = conditions: buffer, pH 7
[1] = Experiment-2: stability, half-life in phosphate buffer (PBS) pH 7 at room temperature; conditions: phosphate buffer (PBS) pH 7, room temperature
[2] = background data of clinical drugs; cited from earlier work
L1210 tumor cells = experiment: Experiment-3: antitumor efficacy in L1210 tumor-bearing CDF1 mice (ILS); format: in vivo; conditions: for Weight Changes: first day to seventh day
Procedure: In the following test, antitumor efficacy studies were performed using 8-9 weeks old female CDF1 mice, the average weight of the animal is 20-25 grams (The experimental animals were purchased from Vital River Laboratory Animal Technology Co. Ltd.). L1210 tumor cells (about 10^5 cells per mouse) were inoculated intraperitoneally. The fluorine-containing water-soluble platinum complexes were used to treat the tumor-bearing animals and the efficacy was compared with the clinical platinum antitumor drugs. […] Drugs were administered intraperitoneally on day 1 and day 4 after tumor cell transplantation. The number of experimental animals in each group was 6.
The increase in life span (ILS) is calculated as follows:
Wherein, St=the weighted median survival time of treated animals; Su=the weighted median survival time of untreated animals

[3] = Experiment-1: solubility in water at room temperature
[4] = buffer, pH 7
[5] = 1.25 mg/Kg i.p. day 1 and day 4

Which half-life (physchem) does the source give for O=C1[O][Pt]([NH]C2CC2)([NH]C2CC2)[O]C(=O)C1(F)CCOC1O[C@H](CO)[C@@H](O)[C@H](O)[C@H]1O (stereo partly drawn) [Example 17, dicyclopropylamino platinum (II) (1-O-D-glucoside-propane-3-fluoro-3,3-dicarboxylate)] here?
The half-life was 62 h.

With “cis-[trans-(1R,2R)-diaminocyclohexane] Pt (II) (1-O-D-glucoside-propane-3-fluoro-3,3-dicarboxylate) [Example 1]” as the molecule, how does the half-life [1] read?
Its half-life is 44 h.

With O=C1[O][Pt]2([NH][C@@H]3CCCC[C@H]3[NH]2)[O]C(=O)C1(F)COC1O[C@H](CO)[C@@H](O)[C@H](O)[C@H]1O (stereo partly drawn) [Example 23, cis-[trans-(1R,2R)-diaminocyclohexane]platinum (II) (1-O-D-glucoside-ethane-2-fluoro-2,2-dicarboxylate)] as the molecule, how does the half-life (physchem) read?
Its half-life is 89 h.

What does the source list for N.N.O=C([O-])C1(C(=O)[O-])CCC1.[Pt+2] [Carboplatin, carboplatin]?
Water Solubility [2]: 17.0 mg/mL; ILS (L1210 tumor cells; 20 mg/Kg i.p. day 1 and day 4): 10%; Survival Animals on Day 42 (L1210 tumor cells; 20 mg/Kg i.p. day 1 and day 4): 0/6; Weight Changes (L1210 tumor cells; 20 mg/Kg i.p. day 1 and day 4): +0 g; ILS (L1210 tumor cells; 40 mg/Kg i.p. day 1 and day 4): 24%; Survival Animals on Day 42 (L1210 tumor cells; 40 mg/Kg i.p. day 1 and day 4): 0/6; Weight Changes (L1210 tumor cells; 40 mg/Kg i.p. day 1 and day 4): -0.3 g; ILS (L1210 tumor cells; 80 mg/Kg i.p. day 1 and day 4): 55%; Survival Animals on Day 42 (L1210 tumor cells; 80 mg/Kg i.p. day 1 and day 4): 0/6; Weight Changes (L1210 tumor cells; 80 mg/Kg i.p. day 1 and day 4): -1.2 g; solubility [3]: 17.0 mg/1 mL H2O

Which half-life [4] does the source give for “cis-[trans-(1R,2R)-diaminocyclohexane] Pt (II) (1-O-D-mannoside-propane-3-fluoro-3,3-dicarboxylate) [Example 9]” here?
Its half-life is 48 h.

For N.N.[Cl][Pt][Cl] [Cisplatin, cisplatin], which ILS (L1210 tumor cells; [5]) is on record?
Its ILS is 36%.

What about the “Survival Animals on Day 42” value (L1210 tumor cells; [5]) of the same molecule?
The value was 0/6.

And the ILS (L1210 tumor cells; 2.5 mg/Kg i.p. day 1 and day 4)?
The ILS was 100%.

What about the “Survival Animals on Day 42” value (L1210 tumor cells; 2.5 mg/Kg i.p. day 1 and day 4) of the same molecule?
Its value is 0/6.

And the “Survival Animals on Day 42” value (L1210 tumor cells; 5.0 mg/Kg i.p. day 1 and day 4)?
Its value is 3/6.

With O=C1[O][Pt]2([NH][C@@H]3CCCC[C@H]3[NH]2)[O]C1=O [Oxaliplatin, oxaliplatin] as the molecule, how does the half-life [1] read?
The half-life was 24 h.

Which half-life (physchem) does the source give for [NH2][Pt]1([NH2])[O]C(=O)C(F)(CCOC2O[C@H](CO)[C@@H](O)[C@H](O)[C@H]2O)C(=O)[O]1 (stereo partly drawn) [Example 3, diamine Pt (II) (1-O-D-glucoside-propane-3-fluoro-3,3-dicarboxylate)] here?
Its half-life is 52 h.

For [NH2][Pt]1([NH2])[O]C(=O)C(F)(COC2O[C@H](CO)[C@@H](O)[C@H](O)[C@H]2O)C(=O)[O]1 (stereo partly drawn) [Example 24, diamine platinum (II) (1-O-D-glucoside-ethane-2-fluoro-2,2-dicarboxylate)], which half-life (physchem) is on record?
The half-life was 73 h.

Source: patent US20150011740A1, “FLUORINE-CONTAINING WATER SOLUBLE PLATINUM COMPLEXES FOR TUMOR TREATMENT AND PROCESS OF PREPARING SAME” (GUDUI BIOPHARMA TECHNOLOGY INC., priority 2011, published 2015)
